In patent US8058433B2, “Crystalline pharmaceutical” (Abbott Laboratories, priority 2000, dated 2011):

Assay: Hygroscopicity of the crystal form
Type: physicochemical
Conditions: unless maintained at about 0% relative humidity the form comprises greater than 0.5 molecules of water per molecule of lopinavir
From the text: The Type I hydrated crystal form of lopinavir comprising about 0.5 molecules of water per molecule of lopinavir is hygroscopic. Therefore, unless maintained under conditions of about 0% relative humidity, the Type I hydrated crystal form of lopinavir comprises greater than 0.5 molecules of water per molecule of lopinavir. If a Type I hydrated crystal form of lopinavir is dehydrated to below about 0.5 molecules of water per molecule of lopinavir, amorphous lopinavir is obtained.
The Type I crystal form of lopinavir comprising about 0.5 molecules of water per molecule of lopinavir has the powder X-ray diffraction pattern which appears in FIG. 1. The Type I crystal form of lopinavir comprising about 0.5 molecules of water per molecule of lopinavir has the solid state ^13C nuclear magnetic resonance spectrum, FT near infrared spectrum and FT mid infrared spectrum which appear in FIGS. 2, 3 and 4, respectively. The sample from which the infrared and nuclear magnetic resonance spectra were obtained may contain somewhat more than 0.5 molecules of water per molecule of lopinavir due to the hygroscopicity of the crystal form when the level of hydration is about 0.5 molecules of water per molecule of lopinavir.

hygroscopicity: hygroscopic
Structure (SMILES): Cc1cccc(C)c1OCC(=O)N[C@@H](Cc1ccccc1)[C@@H](O)C[C@H](Cc1ccccc1)NC(=O)[C@H](C(C)C)N1CCCNC1=O
